US6149912A (priority 1998, dated 2000)
Like-named read-outs stand apart in the source and are kept apart here.

What was measured:
S. typhimurium SL1344 [1] = format: in vivo, Salmonella typhimurium (in CF-1 mice); details: for protective activity against bacterial infection (in words): glycoalkaloid vs aglycon, 8 LD50 i.p.; for survival, illness, weight loss and infection after multiple treatment (in words): multiple i.p. treatment, 5 days after infection / 12 day observation; for animals protected against massive doses: single or multiple injections, 25 LD50 i.p.
S. typhimurium = details: mouse, in vivo; cited from earlier work
[2] = in vivo; cited from earlier work
[3] = LD50 (acute toxicity) in mice; details: mouse, in vivo, 0.03-0.3 mg/kg vs LD50 42 mg/kg, read-out: effective dose relative to LD50 (times lower)
mice = details: cited from earlier work
S. typhimurium SL1344 [4] = tested on: S. typhimurium SL1344; parameters: species or system Salmonella typhimurium (in CF-1 mice); details: mouse, in vivo
[5] = solanine 1 μg, solanidine or diosgenin 0.5 μg/mouse, inguinal pocket, 5 days before i.p. challenge (1.2 × 10^3 CFU, 8 LD50), 5 days post challenge
[6] = solanine 1 μg, solanidine or diosgenin 0.5 μg/mouse, inguinal pocket, 5 days before i.p. challenge (8 LD50), 5 days post challenge
[7] = 1 μg (or 0.5 μg + 0.5 μg) i.p. 3 times every other day before i.p. challenge (3.5 × 10^3 CFU, 25 LD50), 5 days post challenge
[8] = 1 μg (or 0.5 μg + 0.5 μg) i.p. 3 times every other day before i.p. challenge (25 LD50), 5 days post challenge, p < 0.001 vs control
[9] = single 1 μg dose five days prior to challenge with 25 LD50

| Compound | protective activity against bacterial infection (in words) (S. typhimurium SL1344 [1]) | Survival rate (S. typhimurium SL1344 [1]; [5]) | Liver Culture (S. typhimurium SL1344 [1]; [6]) [CFU/500 mg × 10^6] | Spleen Culture (S. typhimurium SL1344 [1]; [6]) [CFU/100 mg × 10^6] | poisoning [2] | Survival rate (S. typhimurium SL1344 [1]; [7]) | Liver Culture (S. typhimurium SL1344 [1]; [8]) [CFU/500 mg × 10^6] | Spleen Culture (S. typhimurium SL1344 [1]; [8]) [CFU/100 mg × 10^6] | survival, illness, weight loss and infection after multiple treatment (in words) (S. typhimurium SL1344 [1]; 25 LD50) | Survival rate (S. typhimurium SL1344 [1]; [9]) | animals protected against massive doses (S. typhimurium SL1344 [1]) | LD50 (mice) [mg/kg] | further results |
| --- | --- | --- | --- | --- | --- | --- | --- | --- | --- | --- | --- | --- | --- |
| C[C@@H]1CC[C@@]2(OC1)O[C@H]1C[C@H]3[C@@H]4CC=C5C[C@@H](O)CC[C@]5(C)[C@H]4CC[C@]3(C)[C@H]1[C@@H]2C [diosgenin, reference compound] | Neither solanidine nor diosgenin possessed any protective activity | 4/10 | 8.5 ± 3.3 | 4.8 ± 1.8 | – | – | – | – | – | – | – | – | – |
| CC(=O)N[C@H]1C(O)O[C@H](CO)[C@@H](O)[C@@H]1O[C@H](C)C(=O)N[C@@H](C)C(=O)N[C@H](CCC(=O)O)C(N)=O (some centres unmarked) [muramyldipeptide] | – | – | – | – | – | – | – | – | – | – | – | – | mice protected (S. typhimurium): 50% |
| C[C@H]1CC[C@@H]2[C@@H](C)[C@H]3[C@H](C[C@H]4[C@@H]5CC=C6C[C@@H](O[C@@H]7O[C@H](CO)[C@@H](O[C@@H]8O[C@@H](C)[C@H](O)[C@@H](O)[C@H]8O)[C@H](O)[C@H]7O[C@@H]7O[C@@H](C)[C@H](O)[C@@H](O)[C@H]7O)CC[C@]6(C)[C@H]5CC[C@]34C)N2C1 [chaconine] | – | – | – | – | can cause poisoning | 8/8 | 0.12 ± 0.09 | 0.03 ± 0.01 | no signs of illness or weight loss during a 12 day observation period | ~75% | sixty to a hundred percent of the animals were protected | 42 | therapeutic index (LD50 / effective dose) [3]: 100 to 1000; LD50 (mice; listed as Chaconine): 40 to 50 mg/kg |
| C[C@H]1CC[C@@H]2[C@@H](C)[C@H]3[C@H](C[C@H]4[C@@H]5CC=C6C[C@@H](O)CC[C@]6(C)[C@H]5CC[C@]34C)N2C1 [solanidine, reference compound] | Neither solanidine nor diosgenin possessed any protective activity | 3/10 | 5.3 ± 2.4 | 1.7 ± 0.6 | – | – | – | – | – | – | – | – | – |
| C[C@H]1CC[C@@H]2[C@@H](C)[C@H]3[C@H](C[C@H]4[C@@H]5CC=C6C[C@@H](O[C@@H]7O[C@H](CO)[C@H](O)[C@H](O[C@@H]8O[C@H](CO)[C@@H](O)[C@H](O)[C@H]8O)[C@H]7O[C@@H]7O[C@@H](C)[C@H](O)[C@@H](O)[C@H]7O)CC[C@]6(C)[C@H]5CC[C@]34C)N2C1 [solanine] | only solanine was able to effectively protect mice against the bacterial infection | 9/10 | 0.8 ± 0.5 | 0.8 ± 0.5 | can cause poisoning | 8/8 | 0.08 ± 0.07 | 0.08 ± 0.02 | no signs of illness or weight loss during a 12 day observation period | approximately 40% | sixty to a hundred percent of the animals were protected | 42 | animals with enhanced resistance to infection (FIG. 1) (S. typhimurium SL1344 [1]; single 0.1, 1.0 or 10.0 μg, challenge (25 LD50) 1, 7 or 14 days later): 40-70%; duration of enhanced host resistance (S. typhimurium SL1344 [1]; single treatment, 1.0 and 10.0 μg, 25 LD50): at least 2 weeks; Fecal Culture (S. typhimurium SL1344 [4]): 20.0 ± 3.5; Liver Culture (S. typhimurium SL1344 [4]): 0.3 ± 0.1; Spleen Culture (S. typhimurium SL1344 [4]): 2.0 ± 0.2; Survival rate (S. typhimurium SL1344 [4]): 5/5; LD50 (mice; listed as Solanine): 40 to 50 mg/kg |
